Source: ChEMBL document CHEMBL5465560, “Selectivity Literature for EUbOPEN Chemogenomic Library” (2024)
Values belong to the molecule of their own block, whether it stands above or below them.

Tests used:
[1] = molecular target: T1, Phosphatidylinositol 5-phosphate 4-kinase type-2 gamma (Homo sapiens) (UniProt Q8TBX8); details: at 10 µM
T1 sequence (whole entry): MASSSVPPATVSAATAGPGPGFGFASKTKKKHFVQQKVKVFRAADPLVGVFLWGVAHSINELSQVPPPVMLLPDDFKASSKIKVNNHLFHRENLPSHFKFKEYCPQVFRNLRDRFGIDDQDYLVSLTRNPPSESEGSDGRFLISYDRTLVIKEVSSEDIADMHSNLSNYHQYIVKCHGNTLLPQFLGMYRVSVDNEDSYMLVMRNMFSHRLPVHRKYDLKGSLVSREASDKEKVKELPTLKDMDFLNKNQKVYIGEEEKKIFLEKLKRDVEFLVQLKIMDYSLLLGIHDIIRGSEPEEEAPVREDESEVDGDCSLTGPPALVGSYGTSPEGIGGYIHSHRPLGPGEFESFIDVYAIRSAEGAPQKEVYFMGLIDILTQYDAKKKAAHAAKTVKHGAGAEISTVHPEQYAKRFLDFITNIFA

[2] = molecular target: Ephrin type-A receptor 2 (Homo sapiens) (UniProt P29317); experiment: Selectivity interaction (KinomeScan (DiscoverX)) EUB0001049a EPHA2; details: at 1 µM
Ephrin type-A receptor 2 (Homo sapiens), sequence (P29317 whole entry): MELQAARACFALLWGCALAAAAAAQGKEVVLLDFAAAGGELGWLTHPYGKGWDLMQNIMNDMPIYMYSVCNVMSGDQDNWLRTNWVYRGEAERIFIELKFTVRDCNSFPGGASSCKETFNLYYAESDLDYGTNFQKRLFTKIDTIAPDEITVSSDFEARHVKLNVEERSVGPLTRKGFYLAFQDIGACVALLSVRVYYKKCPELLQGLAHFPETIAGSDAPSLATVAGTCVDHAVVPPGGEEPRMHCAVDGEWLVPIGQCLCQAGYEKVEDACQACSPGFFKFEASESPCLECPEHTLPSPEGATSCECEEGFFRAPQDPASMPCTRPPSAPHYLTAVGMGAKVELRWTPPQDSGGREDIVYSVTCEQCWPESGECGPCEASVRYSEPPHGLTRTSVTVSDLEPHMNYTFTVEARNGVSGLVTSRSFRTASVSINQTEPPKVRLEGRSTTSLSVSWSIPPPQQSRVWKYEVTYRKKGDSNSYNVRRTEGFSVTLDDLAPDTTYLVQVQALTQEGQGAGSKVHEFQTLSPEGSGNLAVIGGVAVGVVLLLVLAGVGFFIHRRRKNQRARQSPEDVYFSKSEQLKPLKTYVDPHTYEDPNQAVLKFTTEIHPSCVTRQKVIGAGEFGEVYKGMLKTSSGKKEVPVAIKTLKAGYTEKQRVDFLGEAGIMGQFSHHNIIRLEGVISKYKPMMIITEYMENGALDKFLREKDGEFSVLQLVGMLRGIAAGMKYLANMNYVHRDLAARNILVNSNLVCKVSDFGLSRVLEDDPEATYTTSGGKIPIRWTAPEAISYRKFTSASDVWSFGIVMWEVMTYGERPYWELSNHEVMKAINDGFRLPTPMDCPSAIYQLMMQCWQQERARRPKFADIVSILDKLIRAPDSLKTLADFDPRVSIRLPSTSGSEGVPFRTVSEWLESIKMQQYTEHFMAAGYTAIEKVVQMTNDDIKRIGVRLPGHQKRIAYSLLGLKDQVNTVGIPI

[3] = molecular target: Epidermal growth factor receptor (Homo sapiens, UniProt P00533); experiment: Selectivity interaction (Kinase panel (Invitrogen)) EUB0000639a EGFR; details: at 200 nM
Epidermal growth factor receptor, sequence (P00533 whole entry): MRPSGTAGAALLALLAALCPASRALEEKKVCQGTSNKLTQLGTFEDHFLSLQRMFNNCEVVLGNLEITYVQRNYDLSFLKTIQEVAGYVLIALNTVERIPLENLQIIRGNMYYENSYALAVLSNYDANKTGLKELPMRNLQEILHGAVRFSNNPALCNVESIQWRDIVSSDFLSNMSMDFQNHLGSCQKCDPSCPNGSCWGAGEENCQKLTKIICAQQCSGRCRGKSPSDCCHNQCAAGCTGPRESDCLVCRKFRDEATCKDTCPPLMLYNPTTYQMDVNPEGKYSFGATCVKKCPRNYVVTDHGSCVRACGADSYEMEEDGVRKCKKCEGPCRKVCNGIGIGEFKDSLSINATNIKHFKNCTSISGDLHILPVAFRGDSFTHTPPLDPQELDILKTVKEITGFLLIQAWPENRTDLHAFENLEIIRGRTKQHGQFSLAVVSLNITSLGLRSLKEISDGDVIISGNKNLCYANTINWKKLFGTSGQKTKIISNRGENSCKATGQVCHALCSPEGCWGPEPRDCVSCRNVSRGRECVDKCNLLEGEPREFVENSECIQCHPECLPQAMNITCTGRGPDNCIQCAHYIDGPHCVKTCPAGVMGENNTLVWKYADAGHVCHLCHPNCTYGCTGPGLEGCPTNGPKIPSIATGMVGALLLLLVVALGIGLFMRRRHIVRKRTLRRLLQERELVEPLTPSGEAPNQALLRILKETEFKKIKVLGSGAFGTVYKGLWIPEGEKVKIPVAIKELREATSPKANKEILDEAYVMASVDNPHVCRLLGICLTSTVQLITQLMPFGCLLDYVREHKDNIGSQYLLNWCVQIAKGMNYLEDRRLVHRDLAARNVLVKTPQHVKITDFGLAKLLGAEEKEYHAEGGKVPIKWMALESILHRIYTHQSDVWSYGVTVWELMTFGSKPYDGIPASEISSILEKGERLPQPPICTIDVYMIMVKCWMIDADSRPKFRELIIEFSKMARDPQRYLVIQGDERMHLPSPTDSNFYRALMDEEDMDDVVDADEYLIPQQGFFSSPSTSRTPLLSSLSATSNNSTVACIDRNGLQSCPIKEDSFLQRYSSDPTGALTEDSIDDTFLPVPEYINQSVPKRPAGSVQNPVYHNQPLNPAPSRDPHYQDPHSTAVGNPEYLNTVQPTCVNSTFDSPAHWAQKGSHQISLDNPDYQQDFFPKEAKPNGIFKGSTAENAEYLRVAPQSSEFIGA

[4] = molecular target: Dual specificity mitogen-activated protein kinase kinase 2 (Homo sapiens) (UniProt P36507); experiment: Selectivity interaction (Rxn Biology Kinase assay) EUB0001632a MAP2K2; details: at 10 µM
Dual specificity mitogen-activated protein kinase kinase 2 (Homo sapiens), sequence (P36507 whole entry): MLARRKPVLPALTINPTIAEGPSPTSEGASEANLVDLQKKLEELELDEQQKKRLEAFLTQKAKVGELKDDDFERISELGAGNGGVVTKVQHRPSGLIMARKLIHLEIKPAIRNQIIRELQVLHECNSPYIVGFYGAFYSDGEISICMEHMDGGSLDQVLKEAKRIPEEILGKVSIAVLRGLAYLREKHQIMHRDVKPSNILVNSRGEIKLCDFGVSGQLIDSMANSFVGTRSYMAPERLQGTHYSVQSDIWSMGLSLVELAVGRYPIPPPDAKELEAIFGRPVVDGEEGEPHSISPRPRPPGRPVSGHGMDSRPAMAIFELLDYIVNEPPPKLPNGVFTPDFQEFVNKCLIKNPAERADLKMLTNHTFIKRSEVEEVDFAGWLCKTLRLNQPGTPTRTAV

[5] = molecular target: T2, Ephrin type-B receptor 2 (Homo sapiens) (UniProt P29323); details: at 10 µM
T2 sequence (whole entry): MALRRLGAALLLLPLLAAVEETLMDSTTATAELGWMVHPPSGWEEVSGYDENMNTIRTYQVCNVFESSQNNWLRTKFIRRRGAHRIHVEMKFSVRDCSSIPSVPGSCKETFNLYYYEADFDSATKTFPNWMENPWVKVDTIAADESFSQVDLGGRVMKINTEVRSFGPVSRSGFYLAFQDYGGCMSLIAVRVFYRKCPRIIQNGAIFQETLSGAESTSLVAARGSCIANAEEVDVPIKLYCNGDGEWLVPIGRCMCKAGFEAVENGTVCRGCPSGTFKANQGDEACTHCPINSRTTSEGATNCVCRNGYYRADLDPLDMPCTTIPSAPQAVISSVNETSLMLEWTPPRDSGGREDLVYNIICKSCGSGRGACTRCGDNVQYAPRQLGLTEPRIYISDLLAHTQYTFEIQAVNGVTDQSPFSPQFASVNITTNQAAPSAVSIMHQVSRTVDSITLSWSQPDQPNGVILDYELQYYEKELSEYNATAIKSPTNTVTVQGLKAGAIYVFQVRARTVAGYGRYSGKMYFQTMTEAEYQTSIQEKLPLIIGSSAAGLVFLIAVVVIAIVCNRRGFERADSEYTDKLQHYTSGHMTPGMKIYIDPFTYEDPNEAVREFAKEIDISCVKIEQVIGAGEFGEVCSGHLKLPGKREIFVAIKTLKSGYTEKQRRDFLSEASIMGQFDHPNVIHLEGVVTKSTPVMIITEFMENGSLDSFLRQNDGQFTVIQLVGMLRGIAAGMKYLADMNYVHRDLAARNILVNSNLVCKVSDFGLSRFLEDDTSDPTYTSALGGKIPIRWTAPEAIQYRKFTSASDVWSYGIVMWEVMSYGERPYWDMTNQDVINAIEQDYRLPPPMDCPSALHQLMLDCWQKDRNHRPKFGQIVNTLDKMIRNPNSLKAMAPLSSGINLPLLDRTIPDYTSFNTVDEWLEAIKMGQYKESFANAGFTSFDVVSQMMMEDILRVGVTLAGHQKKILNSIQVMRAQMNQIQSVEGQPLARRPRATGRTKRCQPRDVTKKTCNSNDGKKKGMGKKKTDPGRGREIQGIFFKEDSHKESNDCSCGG

[6] = molecular target: Mitogen-activated protein kinase kinase kinase 11 (Homo sapiens) (UniProt Q16584); experiment: Selectivity interaction (KinomeScan (DiscoverX)) EUB0000595a MAP3K11; details: at 10 µM
Mitogen-activated protein kinase kinase kinase 11 (Homo sapiens), sequence (Q16584 whole entry, looked up): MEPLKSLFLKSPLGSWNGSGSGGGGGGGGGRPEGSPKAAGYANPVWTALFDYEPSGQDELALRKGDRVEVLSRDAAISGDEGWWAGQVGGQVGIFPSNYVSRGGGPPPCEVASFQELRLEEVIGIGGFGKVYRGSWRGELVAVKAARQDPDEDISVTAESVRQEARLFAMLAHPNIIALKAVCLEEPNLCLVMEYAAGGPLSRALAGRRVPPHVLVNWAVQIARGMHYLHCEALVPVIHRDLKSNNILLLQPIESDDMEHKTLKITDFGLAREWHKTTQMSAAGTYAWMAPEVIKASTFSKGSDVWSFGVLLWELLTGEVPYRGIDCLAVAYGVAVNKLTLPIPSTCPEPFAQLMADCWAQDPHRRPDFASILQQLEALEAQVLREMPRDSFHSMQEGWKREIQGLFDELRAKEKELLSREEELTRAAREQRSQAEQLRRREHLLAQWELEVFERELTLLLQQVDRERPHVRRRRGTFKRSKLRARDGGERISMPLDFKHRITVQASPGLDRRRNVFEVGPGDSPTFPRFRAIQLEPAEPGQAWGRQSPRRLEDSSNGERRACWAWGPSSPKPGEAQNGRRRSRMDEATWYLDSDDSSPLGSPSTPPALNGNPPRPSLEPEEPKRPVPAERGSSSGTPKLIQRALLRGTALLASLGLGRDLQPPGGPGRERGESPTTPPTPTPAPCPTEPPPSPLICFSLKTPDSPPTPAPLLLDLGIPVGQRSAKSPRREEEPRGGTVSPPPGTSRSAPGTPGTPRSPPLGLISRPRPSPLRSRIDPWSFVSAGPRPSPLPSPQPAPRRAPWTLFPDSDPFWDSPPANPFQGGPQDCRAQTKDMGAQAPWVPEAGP

[7] = molecular target: T3, Serine/threonine-protein kinase TNNI3K (Homo sapiens) (UniProt Q59H18); experiment: Selectivity interaction (KinomeScan (DiscoverX)) EUB0000229b TNNI3K; details: at 10 µM
T3 sequence (whole entry): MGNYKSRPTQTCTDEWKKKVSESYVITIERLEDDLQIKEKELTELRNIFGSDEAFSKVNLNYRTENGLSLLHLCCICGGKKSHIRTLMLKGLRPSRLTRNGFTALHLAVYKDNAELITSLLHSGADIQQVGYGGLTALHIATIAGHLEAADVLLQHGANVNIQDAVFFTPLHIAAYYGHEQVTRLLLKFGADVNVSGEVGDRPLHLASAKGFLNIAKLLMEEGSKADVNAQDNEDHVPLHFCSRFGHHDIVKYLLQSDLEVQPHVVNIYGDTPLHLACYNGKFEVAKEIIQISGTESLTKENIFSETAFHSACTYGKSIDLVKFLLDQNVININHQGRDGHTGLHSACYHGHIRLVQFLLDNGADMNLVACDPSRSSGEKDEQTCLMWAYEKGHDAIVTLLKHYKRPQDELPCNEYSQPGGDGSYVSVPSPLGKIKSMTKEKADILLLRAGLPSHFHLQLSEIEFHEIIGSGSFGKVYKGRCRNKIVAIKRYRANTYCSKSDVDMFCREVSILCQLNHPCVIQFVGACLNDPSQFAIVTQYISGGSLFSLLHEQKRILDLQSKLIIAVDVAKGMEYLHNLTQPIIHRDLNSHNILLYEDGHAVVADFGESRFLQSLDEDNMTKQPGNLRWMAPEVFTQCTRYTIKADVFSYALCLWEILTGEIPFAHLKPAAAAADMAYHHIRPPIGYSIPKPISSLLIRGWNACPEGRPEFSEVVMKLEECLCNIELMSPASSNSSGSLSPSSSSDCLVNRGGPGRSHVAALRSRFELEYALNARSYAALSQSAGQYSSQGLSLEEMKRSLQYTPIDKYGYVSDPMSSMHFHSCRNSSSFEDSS

SMILES: Cc1cc([C@@H](C)Nc2ccccc2C(=O)O)c2nc(N3CCOCC3)cc(=O)n2c1 [AZD-6482]
% of control [1]: 58%

SMILES: COc1cc(Nc2nc(C)cc(-c3cnn4nc(OC)ccc34)n2)cc(C(F)(F)F)c1
% of control [2]: 87%

% of inhibition [3]: 1.86%
SMILES: CC[C@@H]1[C@H](F)C(=O)N[C@@H]1COc1nccc2cc(C(N)=O)c(OC)cc12 [ZIMLOVISERTIB]

% of inhibition [4]: 8.68%
SMILES: Cn1cc(-n2cnc3c(NCc4nc5cc(Cl)c(Cl)cc5[nH]4)nc(N4CCOCC4)nc32)cn1

% of control [5]: 100%
SMILES: CCN(CC)CCCCNc1ncc2cc(-c3cc(OC)cc(OC)c3)c(NC(=O)NC(C)(C)C)nc2n1

SMILES: COCC(=O)NC/C=C/c1ccc2ncnc(Nc3ccc(Oc4ccc(C)nc4)c(C)c3)c2c1 [CP-724714]
% of control [6]: 92%

SMILES: COc1cc(N(C)c2ccnc3ccc(C(F)(F)F)cc23)cc(OC)c1OC
% binding [7]: 90%
